Assays:
[1] = test system: broccoli sprout-derived myrosinase; experiment: Consumption of glucoraphanin by myrosinase as a function of ascorbic acid concentration; assay type: biochemical; conditions: for glucoraphanin (GR) content: 38° C.; for Slope (rate of glucoraphanin consumption): linear regression 0-60 min
Procedure: Consumption of Glucoraphanin as a Function of the Ascorbic Acid Concentration.
About 250 mg of broccoli seed extract containing about 12% (w/w) glucoraphanin were subjected to hydrolysis by a fixed concentration of broccoli sprout-derived myrosinase in the presence of variable concentration of ascorbic acid, ranging from 0 to 600 μmoles/Liter. The reaction mixtures were thermostated at 38° C.; aliquots were withdrawn every 15 minutes for 60 minutes, and concentration of glucoraphanin determined chromatographically. The rate of glucoraphanin consumption was interpreted as the rate its conversion to sulforaphane. Graphical representation of glucoraphanin content reduction as a function of increasing ascorbic acid concentration results in a series of linear plots; the slopes of the linear regression lines reflect the rate of glucoraphanin consumption, in μmoles/minute. It is apparent that in the presence of 600 μmoles/Liter concentration of ascorbic acid, the reaction rate increased 13-fold relative to that which proceeded in the absence of modulatory effects of ascorbic acid.

myrosinase = experiment: Equimolar conversion of glucoraphanin to sulforaphane by myrosinase with and without ascorbic acid; assay type: biochemical, broccoli; conditions: control sample, without ascorbic acid
Procedure: A two-part experiment was conducted to further elucidate the role of ascorbic acid in modulating myrosinase activity. […] A control sample contained no ascorbic acid, and the enzymatic conversion proceeded unassisted by a co-factor. PART 1. […] PART 2. While keeping the amount of broccoli seed extract fixed at 250 mg, the concentration of ascorbic acid was varied from 0.4 mmol/Liter to 3.8 mmol/Liter.

[2] = test system: monocyte chemoattractant protein (MCP-1); conditions: RAW cells, 1μg/mL LPS 30 minutes, then 24 hours treatment; 0.5 μM SFN, 2.5 mM MgSO4, or both
Procedure: The following study was conducted to determine the effect of the combination of sulforaphane and magnesium sulfate (MgSO4) on expression of monocyte chemoattractant protein (MCP-1), which is a mediator of inflammation. MCP-1 is chemokine which attracts monocytes, macrophages, and lymphocytes to sites of inflammation. A reduction in MCP-1 is beneficial for the health of endothelial cells which line the cardiovascular system.
In the study, RAW cells were activated with 1μg/mL lipopolysaccharide (LPS) for 30 minutes to stimulate the induction of MCP-1 gene expression. Following LPS treatment, the cells were treated with one of the following: (i) DMSO (vehicle control), (ii) 0.5 μM SFN, (iii) 2.5 mM MgSO4, or (iv) the combination of 0.5 μM SFN and 2.5 mM MgSO4. After treatment for 24 hours, the MCP-1 levels were assessed via quantitative RT-PCR.

`C[S+]([O-])CCCC/C(=N\OS(=O)(=O)O)S[C@@H]1O[C@H](CO)[C@@H](O)[C@H](O)[C@H]1O` (stereo partly drawn) [GR, 4-methylsulfinylbutyl glucosinolate] was tested, and the “glucoraphanin (GR) content” value ([1]; ascorbic acid 0 μM, 0 min) was 93.36 µmol, the “glucoraphanin (GR) content” value ([1]; ascorbic acid 0 μM, 15 min) was 92.24 µmol and the “glucoraphanin (GR) content” value ([1]; ascorbic acid 0 μM, 30 min) was 90.71 µmol. The “glucoraphanin (GR) content” value ([1]; ascorbic acid 0 μM, 45 min) was 89.44 µmol, the “glucoraphanin (GR) content” value ([1]; ascorbic acid 0 μM, 60 min) was 87.79 µmol and the “Slope (rate of glucoraphanin consumption)” value (“Slope” below) ([1]; ascorbic acid 0 μM) was -0.09293 µmol/min. For the same compound, the “glucoraphanin (GR) content” value ([1]; ascorbic acid 50 μM, 0 min) was 93.36 µmol, the “glucoraphanin (GR) content” value ([1]; ascorbic acid 50 μM, 15 min) was 89.20 µmol and the “glucoraphanin (GR) content” value ([1]; ascorbic acid 50 μM, 30 min) was 84.24 µmol. The “glucoraphanin (GR) content” value ([1]; ascorbic acid 50 μM, 45 min) was 80.30 µmol, the “glucoraphanin (GR) content” value ([1]; ascorbic acid 50 μM, 60 min) was 76.36 µmol and the “Slope” value ([1]; ascorbic acid 50 μM) was -0.286 µmol/min. The “glucoraphanin (GR) content” value ([1]; ascorbic acid 125 μM, 0 min) was 93.36 µmol, the “glucoraphanin (GR) content” value ([1]; ascorbic acid 125 μM, 15 min) was 84.52 µmol and the “glucoraphanin (GR) content” value ([1]; ascorbic acid 125 μM, 30 min) was 75.92 µmol. For the same compound, the “glucoraphanin (GR) content” value ([1]; ascorbic acid 125 μM, 45 min) was 68.09 µmol, the “glucoraphanin (GR) content” value ([1]; ascorbic acid 125 μM, 60 min) was 59.41 µmol and the “Slope” value ([1]; ascorbic acid 125 μM) was -0.5622 µmol/min. The “glucoraphanin (GR) content” value ([1]; ascorbic acid 250 μM Filtered, 0 min) was 93.36 µmol, the “glucoraphanin (GR) content” value ([1]; ascorbic acid 250 μM Filtered, 15 min) was 86.31 µmol and the “glucoraphanin (GR) content” value ([1]; ascorbic acid 250 μM Filtered, 30 min) was 79.44 µmol. The “glucoraphanin (GR) content” value ([1]; ascorbic acid 250 μM Filtered, 45 min) was 71.94 µmol, the “glucoraphanin (GR) content” value ([1]; ascorbic acid 250 μM Filtered, 60 min) was 65.18 µmol and the “Slope” value ([1]; ascorbic acid 250 μM Filtered) was -0.4714 µmol/min. The “glucoraphanin (GR) content” value ([1]; ascorbic acid 250 μM, 0 min) was 93.36 µmol, the “glucoraphanin (GR) content” value ([1]; ascorbic acid 250 μM, 15 min) was 80.95 µmol and the “glucoraphanin (GR) content” value ([1]; ascorbic acid 250 μM, 30 min) was 69.06 µmol. For the same compound, the “glucoraphanin (GR) content” value ([1]; ascorbic acid 250 μM, 45 min) was 57.63 µmol, the “glucoraphanin (GR) content” value ([1]; ascorbic acid 250 μM, 60 min) was 45.76 µmol and the “Slope” value ([1]; ascorbic acid 250 μM) was -0.7901 µmol/min. For the same compound, the “glucoraphanin (GR) content” value ([1]; ascorbic acid 400 μM, 0 min) was 93.36 µmol, the “glucoraphanin (GR) content” value ([1]; ascorbic acid 400 μM, 15 min) was 78.32 µmol and the “glucoraphanin (GR) content” value ([1]; ascorbic acid 400 μM, 30 min) was 62.78 µmol. For the same compound, the “glucoraphanin (GR) content” value ([1]; ascorbic acid 400 μM, 45 min) was 47.67 µmol, the “glucoraphanin (GR) content” value ([1]; ascorbic acid 400 μM, 60 min) was 33.15 µmol and the “Slope” value ([1]; ascorbic acid 400 μM) was -1.007 µmol/min. For the same compound, the “glucoraphanin (GR) content” value ([1]; ascorbic acid 600 μM, 0 min) was 93.36 µmol, the “glucoraphanin (GR) content” value ([1]; ascorbic acid 600 μM, 15 min) was 75.02 µmol and the “glucoraphanin (GR) content” value ([1]; ascorbic acid 600 μM, 30 min) was 55.66 µmol. The “glucoraphanin (GR) content” value ([1]; ascorbic acid 600 μM, 45 min) was 37.50 µmol, the “glucoraphanin (GR) content” value ([1]; ascorbic acid 600 μM, 60 min) was 22.09 µmol and the “Slope” value ([1]; ascorbic acid 600 μM) was -1.2 µmol/min. The “stoichiometry of glucoraphanin conversion to sulforaphane” value (myrosinase) was “equimolar conversion”.

In the case of `O=S(=O)([O-])[O-].[Mg+2]` [magnesium sulfate], the “reduction in MCP-1 levels” value [2] is reported as “approximately 16%”.

With `C[S+]([O-])CCCCN=C=S` (stereo not drawn) [sulforaphane, 1-isothiocyanato-4-methylsulfinylbutane] the “reduction in MCP-1 levels” value [2] was “approximately 29%”.
